This note sets out measurements from patent US11447517B2, “Galactoside inhibitor of galectins” (GALECTO BIOTECH AB, priority 2018, dated 2022).

Chain of galectin-3 (P17931 whole entry): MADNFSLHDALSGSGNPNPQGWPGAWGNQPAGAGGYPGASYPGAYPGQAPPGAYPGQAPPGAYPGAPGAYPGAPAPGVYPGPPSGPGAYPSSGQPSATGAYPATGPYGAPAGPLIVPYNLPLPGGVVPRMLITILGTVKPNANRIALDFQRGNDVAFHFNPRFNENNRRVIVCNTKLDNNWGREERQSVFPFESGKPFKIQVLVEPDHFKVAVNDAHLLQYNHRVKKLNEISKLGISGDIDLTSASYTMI

The assay concerns the target galectin-3 (Homo sapiens (Human), UniProt P17931). The assay is described as follows: Fluorescence anisotropy assay, inhibition of galectin / fluorescein tagged saccharide probe interaction. Format: binding. The procedure: Evaluation of Kd Values The affinity of Example 1-71 for galectins were determined by a fluorescence anisotropy assay where the compound was used as an inhibitor of the interaction between galectin and a fluorescein tagged saccharide probe as described Sörme, P., Kahl-Knutsson, B., Huflejt, M., Nilsson, U. J., and Leffler H. (2004) Fluorescence polarization as an analytical tool to evaluate galectin-ligand interactions. Anal. Biochem. 334: 36-47, (Sörme et al., 2004) and Monovalent interactions of Galectin-1 By Salomonsson, Emma; Larumbe, Amaia; Tejler, Johan; Tullberg, Erik; Rydberg, Hanna; Sundin, Anders; Khabut, Areej; Frejd, Torbjorn; Lobsanov, Yuri D.; Rini, James M.; et al, From Biochemistry (2010), 49(44), 9518-9532, (Salomonsson et al., 2010). […] 100 nM albumin was included as a carrier to prevent protein loss at such low concentration of galectin.
In turn, `COC1[C@@H](Sc2cc(Cl)ccc2C(=O)N(C)C)OC(CO)[C@H](O)[C@@H]1n1cc(-c2cc(F)c(F)c(F)c2)nn1` (stereo partly drawn) [Example 3, 4-Chloro-N,N-dimethyl-benzamide-2-yl 3-deoxy-3-[4-(3,4,5-trifluorophenyl)-1H-1,2,3-triazol-1-yl]-2-O-methyl-1-thio-α-D-galactopyranoside] showed a Kd of 8 nM.
In turn, `COC1[C@@H](Sc2cc(Cl)ccc2C(=O)N(C)C)OC(CO)[C@H](O)[C@@H]1n1cc(-c2cc(F)c(Cl)c(F)c2)nn1` (stereo partly drawn) [Example 4, 4-Chloro-N,N-dimethyl-benzamide-2-yl 3-[4-(4-chloro-3,5-difluorophenyl)-1H-1,2,3-triazol-1-yl]-3-deoxy-2-O-methyl-1-thio-α-D-galactopyranoside] gave a Kd of 14 nM.
With `OC[C@H]1O[C@H](Sc2cncc(Br)c2)[C@H](OCC(O)C(F)(F)F)[C@@H](n2cc(-c3cc(F)c(F)c(F)c3)nn2)[C@H]1O` (stereo partly drawn) [Example 5, 5-Bromopyridin-3-yl 3-deoxy-3-[4-(3,4,5-trifluorophenyl)-1H-1,2,3-triazol-1-yl]-2-O-(1,1,1-trifluoro-2-hydroxyprop-3-yl)-1-thio-α-D-galactopyranoside] the figure was 82 nM; with `CO[C@@H]1[C@@H](n2cc(-c3cc(F)c(Cl)c(F)c3)nn2)[C@@H](O)[C@@H](CO)O[C@@H]1Sc1cc(Cl)ccc1C(=O)N1CCCCC1` [Example 6, 2-(N-piperidinyl-carbonyl)-5-chlorophenyl 3-[4-(4-chloro-3,5-difluorophenyl)-1H-1,2,3-triazol-1-yl]-3-deoxy-2-O-methyl-1-thio-α-D-galactopyranoside], 120 nM; with `COC1[C@@H](Sc2cc(Cl)cnc2N2CC3(COC3)C2)OC(CO)[C@H](O)[C@@H]1n1cc(-c2cc(F)c(F)c(F)c2)nn1` (stereo partly drawn) [Example 10, 5-Chloro-2-{N-(2-oxa)-6-azaspiro[3.3]heptanyl}-pyridin-3-yl 3-deoxy-3-[4-(3,4,5-trifluorophenyl)-1H-1,2,3-triazol-1-yl]-2-O-methyl-1-thio-α-D-galactopyranoside], 33 nM.
With `COC1[C@@H](Sc2cc(Cl)cnc2N2CC3(COC3)C2)OC(CO)[C@H](O)[C@@H]1n1cc(-c2cc(F)c(Cl)c(F)c2)nn1` (stereo partly drawn) [Example 11, 5-Chloro-2-{N-(2-oxa)-6-azaspiro[3.3]heptanyl}-pyridin-3-yl 3-[4-(4-chloro-3,5-difluorophenyl)-1H-1,2,3-triazol-1-yl]-3-deoxy-2-O-methyl-1-thio-α-D-galactopyranoside] the figure was 49 nM; with `CO[C@@H]1[C@@H](n2cc(-c3cc(F)c(C)c(F)c3)nn2)[C@@H](O)[C@@H](CO)O[C@@H]1Sc1cc(Cl)cnc1C#N` [Example 12, 5-Chloro-2-cyanopyridin-3-yl 3-deoxy-3-[4-(3,5-difluoro-4-methylphenyl)-1H-1,2,3-triazol-1-yl]-2-O-methyl-1-thio-α-D-galactopyranoside], 12 nM; with `CO[C@@H]1[C@@H](n2cc(-c3cc(F)c(C)c(F)c3)nn2)[C@@H](O)[C@@H](CO)O[C@@H]1Sc1cc(Cl)ccc1C#N` [Example 14, 5-Chloro-2-cyanophenyl 3-deoxy-3-[4-(3,5-difluoro-4-methylphenyl)-1H-1,2,3-triazol-1-yl]-2-O-methyl-1-thio-α-D-galactopyranoside], 50 nM.
Regarding `CCO[C@@H]1[C@@H](n2cc(-c3cc(F)c(F)c(F)c3)nn2)[C@@H](O)[C@@H](CO)O[C@@H]1Sc1cc(Cl)cnc1C#N` [Example 16, 5-Chloro-2-cyanopyridin-3-yl 3-deoxy-2-O-ethyl-3-[4-(3,4,5-trifluorophenyl)-1H-1,2,3-triazol-1-yl]-1-thio-α-D-galactopyranoside], the Kd turned out to be 59 nM.
With `CCO[C@@H]1[C@@H](n2cc(-c3cc(F)c(F)c(F)c3)nn2)[C@@H](O)[C@@H](CO)O[C@@H]1Sc1cncc(Br)c1` [Example 17, 5-Bromopyridin-3-yl 3-deoxy-3-[4-(3,4,5-trifluorophenyl)-1H-1,2,3-triazol-1-yl]-2-O-ethyl-1-thio-α-D-galactopyranoside] the figure was 74 nM; with `CC(C)O[C@@H]1[C@@H](n2cc(-c3cc(F)c(F)c(F)c3)nn2)[C@@H](O)[C@@H](CO)O[C@@H]1Sc1cncc(Br)c1` [Example 18, 5-Bromopyridin-3-yl 3-deoxy-3-[4-(3,4,5-trifluorophenyl)-1H-1,2,3-triazol-1-yl]-2-O-isopropyl-1-thio-α-D-galactopyranoside], 150 nM; with `OC[C@H]1O[C@H](Sc2cncc(Br)c2)[C@H](OCCF)[C@@H](n2cc(-c3cc(F)c(F)c(F)c3)nn2)[C@H]1O` [Example 19, 5-Bromopyridin-3-yl 3-deoxy-3-[4-(3,4,5-trifluorophenyl)-1H-1,2,3-triazol-1-yl]-2-O-(2-fluoroethyl)-1-thio-α-D-galactopyranoside], 20 nM.
Then `CNCCO[C@@H]1[C@@H](n2cc(-c3cc(F)c(F)c(F)c3)nn2)[C@@H](O)[C@@H](CO)O[C@@H]1Sc1cncc(Br)c1` [Example 20, 5-Bromopyridin-3-yl 3-deoxy-3-[4-(3,4,5-trifluorophenyl)-1H-1,2,3-triazol-1-yl]-2-O-[2-(methylamino)ethyl]-1-thio-α-D-galactopyranoside], with 71 nM; and `OCCO[C@@H]1[C@@H](n2cc(-c3cc(F)c(Cl)c(F)c3)nn2)[C@@H](O)[C@@H](CO)O[C@@H]1Sc1ccc(Cl)c(Cl)c1` [Example 21, 3,4-Dichlorophenyl 3-[4-(4-chloro-3,5-difluorophenyl)-1H-1,2,3-triazol-1-yl]-3-deoxy-2-O-(2-hydroxyethyl)-1-thio-α-D-galactopyranoside], with 58 nM.
Then `COC1[C@@H](Sc2cc(Cl)c(C#N)nc2N2CC3(COC3)C2)OC(CO)[C@H](O)[C@@H]1n1cc(-c2cc(F)c(Cl)c(F)c2)nn1` (stereo partly drawn) [Example 22, 5-Chloro-6-cyano-2-{N-(2-oxa)-6-azaspiro[3.3]heptanyl}-pyridin-3-yl 3-[4-(4-chloro-3,5-difluorophenyl)-1H-1,2,3-triazol-1-yl]-3-deoxy-2-O-methyl-1-thio-α-D-galactopyranoside], with 60 nM; and `COC1[C@@H](Sc2cc(Cl)c(C#N)nc2N2CC3(COC3)C2)OC(CO)[C@H](O)[C@@H]1n1cc(-c2cc(F)c(F)c(F)c2)nn1` (stereo partly drawn) [Example 23, 5-Chloro-6-cyano-2-{N-(2-oxa)-6-azaspiro[3.3]heptanyl}-pyridin-3-yl 3-deoxy-3-[4-(3,4,5-trifluorophenyl)-1H-1,2,3-triazol-1-yl]-2-O-methyl-1-thio-α-D-galactopyranoside], with 37 nM.
For `CO[C@@H]1[C@@H](n2cc(-c3cc(F)c(F)c(F)c3)nn2)[C@@H](O)[C@@H](CO)O[C@@H]1Sc1cc(Cl)cnc1-c1cncnc1` [Example 24, 5-Chloro-2-(pyrimidin-5-yl)pyridin-3-yl 3-deoxy-3-[4-(3,4,5-trifluorophenyl)-1H-1,2,3-triazol-1-yl]-2-O-methyl-1-thio-α-D-galactopyranoside], the Kd worked out at 28 nM.
For the molecule `CO[C@@H]1[C@@H](n2cc(-c3cc(F)c(F)c(F)c3)nn2)[C@@H](O)[C@@H](CO)O[C@@H]1Sc1cc(Cl)cnc1-c1ccccn1` [Example 25, 5-Chloro-2-(pyridin-2-yl)pyridin-3-yl 3-deoxy-3-[4-(3,4,5-trifluorophenyl)-1H-1,2,3-triazol-1-yl]-2-O-methyl-1-thio-α-D-galactopyranoside], the Kd was 24 nM.
Then `CO[C@@H]1[C@@H](n2cc(-c3cc(F)c(F)c(F)c3)nn2)[C@@H](O)[C@@H](CO)O[C@@H]1Sc1cc(Cl)cnc1-c1cccnc1` [Example 26, 5-Chloro-2-(pyridin-3-yl)pyridin-3-yl 3-deoxy-3-[4-(3,4,5-trifluorophenyl)-1H-1,2,3-triazol-1-yl]-2-O-methyl-1-thio-α-D-galactopyranoside], with 55 nM.
The molecule `CO[C@@H]1[C@@H](n2cc(-c3cc(F)c(F)c(F)c3)nn2)[C@@H](O)[C@@H](CO)O[C@@H]1Sc1cc(Cl)cnc1-c1ccncc1` [Example 27, 5-Chloro-2-(pyridin-4-yl)pyridin-3-yl 3-deoxy-3-[4-(3,4,5-trifluorophenyl)-1H-1,2,3-triazol-1-yl]-2-O-methyl-1-thio-α-D-galactopyranoside] had a Kd of 56 nM.
With `CO[C@@H]1[C@@H](n2cc(-c3cc(F)c(F)c(F)c3)nn2)[C@@H](O)[C@@H](CO)O[C@@H]1Sc1cc(Cl)cnc1C1=CCNCC1` [Example 28, 5-Chloro-2-(1,2,3,6-tetrahydropyridin-4-yl)pyridin-3-yl 3-deoxy-3-[4-(3,4,5-trifluorophenyl)-1H-1,2,3-triazol-1-yl]-2-O-methyl-1-thio-α-D-galactopyranoside] the figure was 36 nM; with `CO[C@@H]1[C@@H](n2cc(-c3cc(F)c(F)c(F)c3)nn2)[C@@H](O)[C@@H](CO)O[C@@H]1Sc1cc(Cl)cnc1C1=CCNC1` [Example 29, 5-Chloro-2-(3-pyrrolin-3-yl)pyridin-3-yl 3-deoxy-3-[4-(3,4,5-trifluorophenyl)-1H-1,2,3-triazol-1-yl]-2-O-methyl-1-thio-α-D-galactopyranoside], 68 nM; with `CO[C@@H]1[C@@H](n2cc(-c3cc(F)c(F)c(F)c3)nn2)[C@@H](O)[C@@H](CO)O[C@@H]1Sc1cc(Cl)cnc1-c1ncco1` [Example 30, 5-Chloro-2-(oxazol-2-yl)pyridin-3-yl 3-deoxy-3-[4-(3,4,5-trifluorophenyl)-1H-1,2,3-triazol-1-yl]-2-O-methyl-1-thio-α-D-galactopyranoside], 56 nM.

As usually defined, the Kd is a measure of binding affinity in units of concentration.
